The text below walks through data of patent publication US10953107B2, “Polypeptide compositions and methods for site-specific targeting of therapeutic agents” (Trustees of Boston University, priority 2018, dated 2021).

The conditions of data set [1]: first value of 'x vs. y', second value is an unnamed comparator arm, cited from earlier work; for OS: overall survival; for PFS: progression-free survival.
The subject of another data set is MIA PaCa2. Briefly: ADC cytotoxicity, MTT cell viability assay. It is filed as cell-based, human. The method, then: (§1) Cell viability was assessed by an MTT assay in Panc1 cells and other cell lines at 72 hours post-treatment with increasing concentrations of the ADC and relevant controls. The assay confluence was 20% at the start and up to 60% confluence.
(§2) Cell viability was assessed by an MTT assay in other pancreatic cancer cell lines.
(§3) Cell viability was assessed by an MTT assay in pancreatic cancer cell lines at 72 hours post-treatment with increasing concentrations of the ADC and relevant controls.
Background: Formazan colour is commonly taken as a measure of viable cells.

The subject of data set [2] is Panc1 Cells. Briefly: ADC cytotoxicity, MTT cell viability assay. It is filed as cell-based, human.
A further data set has as its system BJ fibroblasts. Briefly: ADC cytotoxicity in normal cell lines, MTT assay. The method, then: (§4) Cell viability was assessed by an MTT assay in KV2 cells and other normal cell lines at 72 hours post-treatment with increasing concentrations of the ADC and relevant controls.
(§5) Cell viability was assessed by an MTT assay in normal cell lines at 72 hours post-treatment with increasing concentrations of the ADC and relevant controls.

The subject of the next data set is mIMCD. Briefly: ADC cytotoxicity in normal cell lines, MTT assay. The method, then: as §4, §5
Another data set has as its system KV2 cells. Briefly: ADC cytotoxicity in normal cell lines, MTT assay. Conditions: read-out: IC50 / cytotoxicity. The method, then: as §4, §5
The next data set concerns HUVECs. Briefly: ADC cytotoxicity in normal cell lines, MTT assay. Particulars: read-out: IC50 / cytotoxicity; HUVEC, additional characterization (FIG. 41). The method, then:
as §4, §5

The subject of another data set is Capan-1. Briefly: ADC cytotoxicity, MTT cell viability assay. The data set is classed as cell-based, human. As to the method: as §1, §2, §3
The subject of the next data set is BxPC-3. Briefly: ADC cytotoxicity, MTT cell viability assay. The data set is classed as cell-based. The method, then: as §1, §2, §3
For data set [3], the system named is Panc1 Cells. Briefly: Cell viability in response to increasing doses of mertansine (FIG. 19). Conditions: cell viability (FIG. 19). It is filed as cell-based, human. The method, then: (§6) Cell viability was measured in response to increasing doses of mertansine in Panc1 and MIA PaCa2 cell lines to determine the IC50 compared to other chemotherapeutic agents (gemcitabine and Nab-paclitaxel) (FIG. 19). Panc1 cells are a human pancreatic cancer cell line isolated from a pancreatic carcinoma of ductal cell origin. MIA PaCa-2 cells are another type of pancreatic cancer cell line that was derived from the carcinoma of a patient.

The next data set deals with MIA PaCa2 Cells. The description is as above. The data set is classed as cell-based, human. Conditions: cell viability (FIG. 19). The method, then: as §6
The subject of another data set is H6c7. Briefly: ADC cytotoxicity in normal cell lines, MTT assay. It is filed as cell-based. Particulars: H6c7, additional characterization (FIG. 41).
Data set [4] in a line: Circular dichroism (CD): specificity and structural assembly of peptides. The data set is classed as physicochemical. Particulars: circular dichroism (FIG. 2A, FIG. 14A). On the technique in general: Circular dichroism is widely used to follow secondary structure.
Description: We designed and prepared peptide sequences that form a tetrameric coiled coil,^14,15 but discourage self-interaction (positively charged amino acids in docking, negatively charged in receiving).
The mark [5] stands for this setting: read-out: IC50 / cytotoxicity, MTT (FIG. 32), NS = not significantly different from 100% viability of control.
Where [6] appears, read: read-out: IC50 / cytotoxicity, additional characterization (FIG. 41).

Read-outs that look alike come from different tables or passages of the source.

`C#Cc1cccc(Nc2ncnc3cc(OCCOC)c(OCCOC)cc23)c1` [Erlotinib]: in data set [1], the OS was 6.2 vs. 5.9 mo and the PFS is reported as 3.8 vs. 3.6 mo.
Regarding `Nc1ccn([C@@H]2O[C@H](CO)[C@@H](O)C2(F)F)c(=O)n1` [Gemcitabine], the IC50 in the data set with MIA PaCa2 (Homo sapiens, MIA PaCa-2, MIA PaCa2, MTT (FIG. 29-30)) is 256 nM; with Panc1 Cells [2] (Homo sapiens, PANC-1, Panc1, MTT, 72 hours (FIG. 28)), 700 nM.
For the molecule `COc1cc2cc(c1Cl)N(C)C(=O)C[C@H](OC(=O)[C@H](C)N(C)C(=O)CCS)[C@]1(C)O[C@H]1[C@H](C)[C@@H]1C[C@@](O)(NC(=O)O1)[C@H](OC)/C=C/C=C(\C)C2` [Mertansine, mertansine], the IC50 with BJ fibroblasts (setting [5]) was determined as 16.8 nM; with BJ fibroblasts (setting [6]) it was 16.8 nM; in the data set on mIMCD (setting [5]) it was 3 nM; with mIMCD (setting [6]), 3 nM; in the data set on KV2 cells (KV2, additional characterization (FIG. 41)) it was 289 nM; in the data set on KV2 cells (KV-2, MTT, 72 hours (FIG. 31-32), NS = not significantly different from 100% viability of control), 95.5 nM. Moreover, the IC50 in the data set on HUVECs was determined as 2.7 nM; with MIA PaCa2 (MIA PaCa2, MTT (FIG. 29-30)) it was 0.31 nM; in the data set on MIA PaCa2 (MIA PaCa2, additional characterization (FIG. 39)), 0.31 nM; in the data set with Capan-1 (Capan-1, MTT (FIG. 30)), 22.1 nM; in the data set on Capan-1 (Capan-1, additional characterization (FIG. 39)) it was 22.1 nM; in the data set on BxPC-3 (BxPC-3, MTT (FIG. 30)), 18.8 nM. Besides, the IC50 in the data set with BxPC-3 (BxPC-3, additional characterization (FIG. 39)) is 18.8 nM; with Panc1 Cells [2] (Panc1, MTT, 72 hours (FIG. 28-30)), 1.98 nM; in the data set on Panc1 Cells [2] (Panc1, additional characterization (FIG. 39)) it was 1.98 nM; in the data set on Panc1 Cells [3], 1.19 nM; in the data set with MIA PaCa2 Cells it was 0.268 nM; in the data set on H6c7 it was 2.4 nM.
As to Cixutumumab, in data set [1], the OS was 7.0 vs. 6.7 mo and the PFS is given as 3.6 vs 3.6 mo.
Take “MK(LEEIVSE)2LEEIVTELEEIVSEVGER (MKLEEIVSELEEIVSELEEIVTELEEIVSEVGER) [Peptide V/E, acidic V/E-type docking peptide]”: in [4], the “self-assembly / coiled coil formation” value is on record as “do not self-assemble”.
MK(LKKIKSV)4VGER [Peptide V/K]: the “self-assembly / coiled coil formation” value in [4] was “do not self-assemble”.
Turning to Nimotuzumab, in data set [1], the OS is given as 8.6 vs. 6.0 mo and the PFS is reported as 5.3 vs. 3.6 mo.
